# Measured values from ChEMBL document CHEMBL5532698, “2,3-Dihydroquinazolin-4(1H)-ones and quinazolin-4(3H)-ones as broad-spectrum cytotoxic agents and their impact on tubulin polymerisation” (RSC Med Chem, 2024).
# Activity calls are given as the source filed them. The calls are words filed in the database; no cut-off is given here.
# What was measured:
# NCI-H460 [1] = experiment: Antiproliferative activity against human NCI-H460 cells assessed as cell growth inhibition incubated for 72 hrs by MTT assay; format: functional
# A-431 [2] = experiment: Antiproliferative activity against human A-431 cells assessed as cell growth inhibition incubated for 72 hrs by MTT assay; format: functional
# [3] = Antiproliferative activity against human SJG2 cells assessed as cell growth inhibition incubated for 72 hrs by MTT assay; format: functional; conditions: SJ-G2
# A-431 [4] = experiment: Antiproliferative activity against human A-431 cells assessed as cell growth inhibition at 25 uM incubated for 72 hrs by MTT assay relative to control; format: functional
# [5] = Cytotoxicity against human MCF-10A cells assessed as cell growth inhibition at 25 uM incubated for 72 hrs by MTT assay relative to control; format: toxicity, cell-based
# HT-29 [6] = experiment: Antiproliferative activity against human HT-29 cells assessed as cell growth inhibition at 25 uM incubated for 72 hrs by MTT assay relative to control; format: functional
# [7] = Cytotoxicity against human MCF-10A cells assessed as cell growth inhibition incubated for 72 hrs by MTT assay; format: toxicity, cell-based
# A2780 [8] = experiment: Antiproliferative activity against human A2780 cells assessed as cell growth inhibition incubated for 72 hrs by MTT assay; format: functional
# U-87 MG [9] = experiment: Antiproliferative activity against human U87 cells assessed as cell growth inhibition at 25 uM incubated for 72 hrs by MTT assay relative to control; format: functional, U-87MG ATCC
# [10] = Antiproliferative activity against human SJG2 cells assessed as cell growth inhibition at 25 uM incubated for 72 hrs by MTT assay relative to control; format: functional; conditions: SJ-G2
# BE(2)-C [11] = experiment: Antiproliferative activity against human BE2C cells assessed as cell growth inhibition at 25 uM incubated for 72 hrs by MTT assay relative to control; format: functional
# MCF7 [12] = experiment: Antiproliferative activity against human MCF7 cells assessed as cell growth inhibition at 25 uM incubated for 72 hrs by MTT assay relative to control; format: functional
# MIA PaCa-2 [13] = experiment: Antiproliferative activity against human MIA PaCa-2 cells assessed as cell growth inhibition incubated for 72 hrs by MTT assay; format: functional
# HT-29 [14] = experiment: Antiproliferative activity against human HT-29 cells assessed as cell growth inhibition incubated for 72 hrs by MTT assay; format: functional
# A2780 [15] = experiment: Antiproliferative activity against human A2780 cells assessed as cell growth inhibition at 25 uM incubated for 72 hrs by MTT assay relative to control; format: functional
# MCF7 [16] = experiment: Antiproliferative activity against human MCF7 cells assessed as cell growth inhibition incubated for 72 hrs by MTT assay; format: functional
# DU-145 [17] = experiment: Antiproliferative activity against human DU-145 cells assessed as cell growth inhibition at 25 uM incubated for 72 hrs by MTT assay relative to control; format: functional
# BE(2)-C [18] = experiment: Antiproliferative activity against human BE2C cells assessed as cell growth inhibition incubated for 72 hrs by MTT assay; format: functional
# Tubulin (Homo sapiens) [19] = target: T1, Tubulin (Homo sapiens) (UniProt P68371+Q9H4B7+P0DPH7+P68366+Q13509+Q71U36+P04350+Q3ZCM7+P07437+P68363+Q9BQE3+Q6PEY2+Q13885+Q9BVA1+Q9BUF5); experiment: Inhibition of tubulin (unknown origin) polymerization assessed as reduction microtubule formation at 10 uM by fluorometric analysis; format: protein-complex assay
# U-87 MG [20] = experiment: Antiproliferative activity against human U87 cells assessed as cell growth inhibition incubated for 72 hrs by MTT assay; format: functional, U-87MG ATCC
# NCI-H460 [21] = experiment: Antiproliferative activity against human NCI-H460 cells assessed as cell growth inhibition at 25 uM incubated for 72 hrs by MTT assay relative to control; format: functional
# DU-145 [22] = experiment: Antiproliferative activity against human DU-145 cells assessed as cell growth inhibition incubated for 72 hrs by MTT assay; format: functional
# MIA PaCa-2 [23] = experiment: Antiproliferative activity against human MIA PaCa-2 cells assessed as cell growth inhibition at 25 uM incubated for 72 hrs by MTT assay relative to control; format: functional
# MIA PaCa-2 [24] = experiment: Induction of G2/M phase cell cycle arrest in human MIA PaCa-2 cells assessed as sub G1 phase cells at 0.1 uM incubated for 24 hrs by PI/RNase staining based analysis (reference value: 4 +/- 2%); format: functional
# MIA PaCa-2 [25] = experiment: Induction of G2/M phase cell cycle arrest in human MIA PaCa-2 cells assessed as S phase cells at 0.1 uM incubated for 24 hrs by PI/RNase staining based analysis (reference value: 11 +/- 1%); format: functional
# HeLa = experiment: Antiproliferative activity against human HeLa cells assessed as reduction in cell viability incubated for 48 hrs by MTT assay; format: functional, cell-based
# MIA PaCa-2 [26] = experiment: Induction of G2/M phase cell cycle arrest in human MIA PaCa-2 cells assessed as G1 phase cells at 0.5 uM incubated for 24 hrs by PI/RNase staining based analysis (reference value: 66 +/- 2%); format: functional
# MIA PaCa-2 [27] = experiment: Induction of G2/M phase cell cycle arrest in human MIA PaCa-2 cells assessed as sub G1 phase cells at 0.5 uM incubated for 24 hrs by PI/RNase staining based analysis (reference value: 4 +/- 2%); format: functional
# MIA PaCa-2 [28] = experiment: Induction of G2/M phase cell cycle arrest in human MIA PaCa-2 cells assessed as S phase cells at 0.5 uM incubated for 24 hrs by PI/RNase staining based analysis (reference value: 11 +/- 1%); format: functional
# HepG2 = experiment: Antiproliferative activity against human HepG2 cells assessed as reduction in cell viability incubated for 48 hrs by MTT assay; format: functional, cell-based; conditions: HepG2, 48 h
# A549 = experiment: Antiproliferative activity against human A549 cells assessed as reduction in cell viability incubated for 48 hrs by MTT assay; format: functional, cell-based; conditions: A549, 48 h
# WRL68 = experiment: Antiproliferative activity against human WRL68 cells assessed as reduction in cell viability incubated for 48 hrs by MTT assay; format: functional, cell-based; conditions: WRL68, 48 h
# MIA PaCa-2 [29] = experiment: Induction of G2/M phase cell cycle arrest in human MIA PaCa-2 cells assessed as G1 phase cells at 0.1 uM incubated for 24 hrs by PI/RNase staining based analysis (reference value: 66 +/- 2%); format: functional
# HCT-116 = experiment: Antiproliferative activity against human HCT-116 cells assessed as reduction in cell viability incubated for 48 hrs by MTT assay; format: functional, cell-based; conditions: HCT-116, 48 h
# MIA PaCa-2 [30] = experiment: Induction of G2/M phase cell cycle arrest in human MIA PaCa-2 cells at 0.1 uM incubated for 24 hrs by PI/RNase staining based analysis (reference value: 20 +/- 1%); format: functional
# MIA PaCa-2 [31] = experiment: Induction of G2/M phase cell cycle arrest in human MIA PaCa-2 cells at 0.5 uM incubated for 24 hrs by PI/RNase staining based analysis (reference value: 20 +/- 1%); format: functional
# Tubulin (Homo sapiens) [32] = target: T1, Tubulin (Homo sapiens); experiment: Inhibition of tubulin (unknown origin) polymerization assessed as reduction microtubule formation at 10 uM measured after approximately 1 hrs by fluorometric analysis; format: protein-complex assay
GI50 (NCI-H460 [1]),GI50 (A-431 [2]),GI50 (A2780 [8]),GI50 (MIA PaCa-2 [13]),GI50 (HT-29 [14]),GI50 (MCF7 [16]),GI50 (U-87 MG [20]),SMILES,GI50 [3],inhibition at 25 µM (A-431 [4]),"inhibition at 72 h, 25 µM [5]",inhibition at 25 µM (HT-29 [6]),GI50 at 72 h [7],inhibition at 25 µM (U-87 MG [9]),inhibition at 25 µM [10],inhibition at 25 µM (BE(2)-C [11]),inhibition at 25 µM (MCF7 [12]),inhibition at 25 µM (A2780 [15]),inhibition at 25 µM (DU-145 [17]),GI50 (BE(2)-C [18]),inhibition (Tubulin (Homo sapiens) [19]),also measured
11 µM,33 µM,12 µM,5500 nM,3800 nM,2600 nM,> 50000 nM,COc1ccc(/C=C/c2nc3ccccc3c(=O)[nH]2)cc1,6.4 µM,45%,60%,78%,11 µM,24%,89%,66%,> 100%,66%,41%,4400 nM,Active,inhibition at 25 µM (NCI-H460 [21]): 60%; GI50 (DU-145 [22]): 45 µM; inhibition at 25 µM (MIA PaCa-2 [23]): 67%
–,–,–,–,–,–,–,COC(=O)Nc1nc2cc(C(=O)c3cccs3)ccc2[nH]1 [NOCODAZOLE],–,–,–,–,–,–,–,–,–,–,–,–,Active,Activity (MIA PaCa-2 [24]): 21%; Activity (MIA PaCa-2 [25]): 8%; IC50 (HeLa): 2220 nM; Activity (MIA PaCa-2 [26]): 16%; Activity (MIA PaCa-2 [27]): 14%; Activity (MIA PaCa-2 [28]): 9%; IC50 (HepG2): 5.08 µM; IC50 (A549): 5.09 µM; IC50 (WRL68): 7.56 µM; Activity (MIA PaCa-2 [29]): 34%; IC50 (HCT-116): 1810 nM; Activity (MIA PaCa-2 [30]): 37%; Activity (MIA PaCa-2 [31]): 60%
0.037 µM,0.02 µM,0.031 µM,48 nM,20 nM,75 nM,220 nM,O=C1NC(c2cccc3ccccc23)Nc2ccccc21 (stereo not drawn),0.05 µM,> 100%,> 100%,> 100%,0.04 µM,93%,> 100%,> 100%,> 100%,> 100%,> 100%,27 nM,–,Activity (MIA PaCa-2 [24]): 4%; inhibition (Tubulin (Homo sapiens) [32]): Active; Activity (MIA PaCa-2 [25]): 11%; Activity (MIA PaCa-2 [26]): 17%; Activity (MIA PaCa-2 [27]): 17%; Activity (MIA PaCa-2 [28]): 11%; inhibition at 25 µM (NCI-H460 [21]): > 100%; Activity (MIA PaCa-2 [29]): 63%; GI50 (DU-145 [22]): 0.089 µM; Activity (MIA PaCa-2 [30]): 22%; Activity (MIA PaCa-2 [31]): 55%; inhibition at 25 µM (MIA PaCa-2 [23]): 94%
